Measured values reported in patent US12454534B2, “Pyrrolo[2,3-b]pyrazines as HPK1 inhibitor and the use thereof” (BEIGENE, LTD., priority 2019, dated 2025).

Experiments:
[1] = target: T1, HPK1 kinase (aa1-346, Life Technologies) (Homo sapiens, UniProt Q92918); assay: HPK1 Kinase Activity Assay at 1 mM ATP (TR-FRET); type: biochemical; conditions: HPK1 40 nM, read-out: Enzymatic activity IC50
T1 construct: HPK1 kinase (aa1-346, Life Technologies); purchased Life Technologies
T1 sequence (Q92918 1-346): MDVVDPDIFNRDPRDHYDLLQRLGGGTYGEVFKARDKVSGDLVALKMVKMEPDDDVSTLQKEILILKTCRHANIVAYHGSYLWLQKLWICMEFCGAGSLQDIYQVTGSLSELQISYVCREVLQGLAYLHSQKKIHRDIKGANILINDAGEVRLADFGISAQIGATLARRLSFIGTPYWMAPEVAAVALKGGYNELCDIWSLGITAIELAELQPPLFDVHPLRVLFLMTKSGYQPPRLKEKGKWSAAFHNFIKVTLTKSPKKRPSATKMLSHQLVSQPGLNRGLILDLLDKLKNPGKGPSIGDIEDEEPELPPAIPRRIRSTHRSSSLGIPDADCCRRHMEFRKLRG
How it was run: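 HPK1 (aa1-346, 40 nM) pre-incubated 60 min at room temperature with compound (0-10 μM), then reacted 120 min with 1 mM ATP and 0.5 μM STK1 substrate in HEPES pH 7.0 with MgCl2. Phosphorylation read by TR-FRET (665/620 nm); IC50 from four-parameter logistic fit.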

[2] = tested on: HEK293 cells; assay: HEK293 cell viability assay (CellTiter-Glo); type: cell-based; conditions: Homo sapiens, HEK293, 72 h, 3-day exposure, 0 to 10 μM
Procedure: Cytotoxicity on HEK293 Cells Proliferation (HEK293 Cell Viability Assay)
HEK293 cell line were used in this study. Cell lines were maintained in DMEM (Dulbecco's Modified Eagle Medium) supplemented with 10% fetal bovine serum (Thermo Fisher), 50 units/mL penicillin and streptomycin (Thermo Fisher) and kept at 37° C. in a humidified atmosphere containing 5% CO2 in air. Cell lines were reinstated from frozen stocks that were laid down within 50 passages from the original cells purchased. The growth-inhibitory activity of compounds in HEK293 cells was determined using CellTiter-Glo luminescent cell viability assay (Promega). 3000 cells per well were seeded into a 96-well plate to ensure logarithmic growth for 3 days treatment period. Cells were treated with a 10-point dilution series. The final compound concentration was from 0 to 10 μM. Following a 3-day exposure to the test compounds, 30 μL of CellTiter-Glo reagent was added into 100 μL cell culture medium per well. Mixture was mixed on an orbital shaker for 2 minutes to allow cell lysis, followed by 10 minutes of incubation at room temperature to allow development and stabilization of luminescent signal, which corresponded to the quantity of ATP and thus the quantity of metabolically active cells. Luminescent signal was measured using PHERAstar FS reader (BMG Labtech). IC50 values for cell viability were determined with Dotmatics.

IC50 [1]: 86 nM
Structure (SMILES): CCN1CCc2c(C)cc(-c3cnc4[nH]cc(-c5ccc(C(=O)N(C)C)c(C)c5)c4n3)cc2C1 [Example 127, 4-(2-(2-ethyl-5-methyl-1,2,3,4-tetrahydroisoquinolin-7-yl)-5H-pyrrolo[2,3-b]pyrazin-7-yl)-N, N, 2-trimethylbenzamide]
IC50 [2]: 3.13 µM
